# “Also recorded” adds a separate entry of the source.
# Key:
# [1] = system: NF-κB; assay: NF-κB reporter, gel shift and IκB phosphorylation after LPS/IFN; assay type: cell-based, rat
# Protocol: (§1) Western Blot Analysis. For iNOS protein, the cells were washed with cold Tris buffered saline (TBS; 20 mM Trizma base, and 137 mM NaCl, pH 7.5), lysed in 1×SDS sample loading buffer (62.5 mM Trizma base, 2% w/v SDS, 10% glycerol), following sonication and centrifugation at 1,5000×g for 5 min, the supernatant was used for the iNOS western immunoblot assay. The protein concentration of samples was determined with the detergent compatible protein assay reagent (Bio-Rad Laboratories, CA) using bovine serum albumin (BSA) as the standard. Sample was boiled for 3 min with 0.1 volumes of 10% O-mercaptoethanol and 0.5% bromophenol blue mix. Fifty μg of total cellular protein was resolved by electrophoresis in 8 or 12% polyacrylamide gels, electro-transferred to polyvinylidene difluoride (PVDF) filter and blocked with Tween 20 containing Tris-buffered saline [TBST; 10 mM Trizma base (pH 7.4), 1% Tween 20, and 150 mM NaCl] with 5% skim milk. After incubation with antiserum against iNOS (BD PharMingen, CA), or hRas (Upstate Biotechnology, CA), or phospho-specific MAPK (p42/44) (Signal Transduction), in PVDF buffer for 2 h at room temperature, the filters were washed 3 times with TBST buffer and then incubated with horseradish peroxidase conjugated anti-rabbit or mouse IgG for 1 h. The membranes were autoradiographed by using ECL-plus (Amersham Pharmacia Biotech) after washing with TBST buffer.
# Nuclear Extraction and Electrophoretic mobility shift assay. Nuclear extracts from cells (1×10^7 cells) were prepared using previously published method (Dignam et al., 1983) with slight modification. Cells were harvested, washed twice with ice-cold TBS, and lysed in 400 μl of buffer A containing, 10 mM KCl, 2 mM MgCl2, 0.5 mM dithiothreitol, protease inhibitor cocktail (Sigma), and 0.1% Nonidet P40 in 10 mM HEPES, pH 7.9 for 10 min on ice. Following centrifugation at 5,000×g for 10 min, the pelleted nuclei were washed with buffer A without Nonidet P40, and re-suspended in 40 μl of buffer B containing 25% (v/v) glycerol, 0.42 M NaCl, 1.5 mM MgCl2, 0.2 mM EDTA, 0.5 mM dithiothreitol, and Complete™ protease inhibitor cocktail (Roche) in 20 mM HEPES, pH7.9 for 30 min on ice. The lysates were centrifuged at 15,000×g for 15 min and the supernatants containing the nuclear proteins were stored at −70° C. until use. Ten μg of nuclear proteins was used for the electrophoretic mobility shift assay for detection of AP-1, NFκB, and C/EBP DNA binding activities. DNA-protein binding reactions were carried out at room temperature for 20 min in 10 mM Trizma base (pH 7.9), 50 mM NaCl, 5 mM MgCl2, 1 mM EDTA, 1 mM dithiothreitol, 1 μg poly (dl-dC), 5% (v/v) glycerol, and approximately 0.3 pmol of NFκB (Santa Cruz Biotech) labeled with DIG-ddUTP using terminal deoxynucleotidyl transferase (Roche). Protein-DNA complexes were resolved from protein-free DNA in 5% polyacrylamide gels at room temperature in 50 mM Tris, pH 8.3, 0.38 M glycine, and 2 mM EDTA, and electroblotted onto positively charged nylon membranes. The chemiluminescence detection method for DIG-labeled probes is identical to the method described for the non-isotopic northern blot analysis in the preceding.
# Transient Transfections and Reporter Gene Assay. 3×10^5 cells/well were cultured in 6-well plates for one day before the transfection. Transfection was performed with plasmid concentration constant (2.5 μg/transfection) and 8 μl of Fugene transfection reagent (Roche Molecular Biochemicals). One day after transfection, the cells were placed in serum free media for overnight. Following appropriate treatment, the cells were washed with phosphate buffered saline (PBS), scrapped, and then resuspended with 100 μl of lysis buffer (40 mM of Tricine pH 7.8, 50 mM of NaCl, 2 mM of EDTA, 1 mM of MgSO4, 5 mM of dithiothreitol, and 1% of Triton X-100). After incubation in room temperature for 15 min with occasional vortexing, the samples were centrifuged. […]
# [2] = system: ERK1/2; assay: ERK1/2 phosphorylation by immunoblot after LPS/IFN; assay type: cell-based, rat; conditions: D-PDMP pretreatment; LPS/IFN 20 minutes
# Protocol: as §1
# [3] = molecular target: T1, lactosylceramide synthase (GalT-2) (Rattus norvegicus, UniProt O88419); assay: Measurement of lactosylceramide synthesis in primary astrocytes; assay type: cell-based; conditions: D-PDMP pretreatment 0.5 hr; 14C-galactose labelling, HPTLC
# T1 construct: endogenous in cells; host or cells: primary astrocytes
# T1 sequence (O88419 1-382): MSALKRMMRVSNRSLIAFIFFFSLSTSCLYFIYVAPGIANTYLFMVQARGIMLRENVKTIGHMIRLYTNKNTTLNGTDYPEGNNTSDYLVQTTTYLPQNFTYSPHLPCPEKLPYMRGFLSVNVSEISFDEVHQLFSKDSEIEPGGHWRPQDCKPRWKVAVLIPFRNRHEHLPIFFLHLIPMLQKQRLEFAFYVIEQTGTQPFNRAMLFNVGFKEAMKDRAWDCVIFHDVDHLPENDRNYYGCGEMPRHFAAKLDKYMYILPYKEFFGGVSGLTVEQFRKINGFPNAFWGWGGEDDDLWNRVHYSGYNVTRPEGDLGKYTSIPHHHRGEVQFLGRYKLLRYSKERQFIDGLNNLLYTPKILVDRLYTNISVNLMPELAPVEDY
# Protocol: Measurement of lactosylceramide synthesis. Cultured cells were incubated in growth medium containing [^14C] galactose (5 ? Ci/ml) for 24 h as described previously. The medium was removed, and the cell monolayer was washed with sterile PBS to remove nonspecifically adsorbed radioactivity and fresh serum free medium was added. After the stimulation of cells with LPS/IFN ? (1 ? g/ml; 10 U/ml) for various durations cells were then harvested and washed with ice cold PBS and lysed by sonication. Following protein quantification, […] of protein was used for extraction of lipids using Chloroform:Methanol:HCl (100:100:1). The organic phase was dried under nitrogen. Glycosphingolipids were resolved by high performance thin layer chromatography using chloroform/methanol/0.25% KCl (70:30:4, v/v/v) as the developing solvent. The chromatographic plate was dried in air and stained with iodine vapors. The gel area corresponding to LacCer was scraped, and radioactivity was measured employing “liquiscint” (NEN Life Science Products) as a scintillating fluid.
# [4] = system: iNOS; assay: LPS/IFN-induced NO production and iNOS gene expression in primary astrocytes; assay type: cell-based, rat; conditions: D-PDMP 0, 10, 25, 50 μM, 0.5 h pretreatment
# [5] = system: SCI rats; assay type: in vivo
# [6] = D-PDMP 20 mg/kg, 24 hrs following injury
smiles,measurement,setting,value
"CCCCCCCCCC(=O)NC(CN1CCOCC1)C(O)c1ccccc1.Cl [D-PDMP, D-threo-1-Phenyl-2-decanoylamino-3-morpholino-1-propanol HCl]",LPS/IFN induced luciferase activity (κB-repeat luciferase),[1]; D-PDMP 0.5 hr before LPS/IFN,abolished
same,phosphorylation of IκB,[1]; in the presence of D-PDMP,Decreased
same,NF-κB DNA binding activity (electrophoresis mobility shift assay),"[1]; increasing doses of D-PDMP, LPS/IFN 45 minutes",inhibited
same,LPS/IFN induced phosphorylation of ERK 1/2,[2],inhibited
same,increase in LacCer biosynthesis following LPS/IFN stimulation,[3],inhibited this increase
same,production of nitric oxide (NO),"[4]; LPS/IFN 1 μg/ml, 10 U/ml, 24 hrs",dose dependent decrease
same,mRNA and protein levels of iNOS,"[4]; LPS/IFN, mRNA 6 hrs, protein 24 hrs",dose dependent decrease
same,iNOS mRNA and protein expression at the site of injury,"[5]; D-PDMP 20 mg/Kg i.p. within 10 minutes following SCI, 12 hrs",markedly suppresses; also recorded: significantly lower
same,"GFAP expression (immunofluorescence, lesion epicenter)",[5]; [6],significantly reduced
same,"iNOS expression (immunofluorescence, lesion epicenter)",[5]; [6],significantly reduced
same,SCI induced white matter vacuolization and tissue necrosis (H&E),[5]; D-PDMP treated SCI rats,inhibited
same,apoptosis of neurons and other cells (TUNEL/NeuN),[5]; D-PDMP treated SCI rats,protection against apoptosis
same,demyelinization (LFB staining),[5]; D-PDMP treated SCI rats,attenuated
same,adverse effect on neuronal survival,[5]; D-PDMP treated sham operated animals,no adverse effect

# Source: patent US20070270350A1, “Methods and Compositions for the Prevention and Treatment of Inflammatory Diseases or Conditions” (MUSC FOUNDATION FOR RESEARCH DEVELOPMENT, priority 2003, published 2007)
